This is an account of results in publication PMC4792161, “A novel pyrazole derivative protects from ovariectomy-induced osteoporosis through the inhibition of NADPH oxidase” (Scientific Reports, 2016).

Each structure is given as a SMILES string. Where a name gives a salt, the structure may show the parent alone.

In one data set the test system is Mature OCs. The data set is described as follows: TUNEL assay, apoptosis of OCs. As to conditions: 10 μM, absence or presence of RANKL. The data set is classed as cell-based. The protocol:
Apoptotic cells were detected by the […] nick end labeling (TUNEL) assay In Situ Cell Death Detection Kit (Roche Applied Science, Basel, Switzerland) according to the manufacturer’s instructions. […] The percentage of positively stained cells was determined by counting the numbers of TUNEL labeled and DAPI stained cells. The experiments were repeated 3 times, and the mean values were calculated.
Supplementary Figure S5. […] Mature OCs were
generated with M-CSF and RANKL. Cells were washed with PBS and then treated with Ewha-18278
(10 μM) or DMSO with or without RANKL for 20 hours. Cells were subjected into TUNEL assay. Data […]

Data set [1] has as its system OVX-induced osteoporotic ddY mice. The data set is described as follows: Tibia weights (wet, dry, ash) in OVX mice. The data set is classed as in vivo. The protocol:
The right sides of femur and tibia were weighed and then dried at 120 °C for 8 hours. The dried bones were carbonized at 800 °C for 6 hours in a furnace (Daihan Scientific, Korea) to detect ash absolute weights, after measurement of BMD and failure load. To reduce the individual body weight differences, the relative weight (%) was calculated using body weight at sacrifice and absolute weight as [Relative bone weights = (Absolute bone weight/Body weight at sacrifice) ×100]. In addition, ashed bones were ground and dissolved in nitric acid. In diluted solution, Ca and P contents were calculated (mg/g bone) using an orthocresolphthalein complex and enzyme methods, respectively. The Ca/P ratio (%) was calculated as (Tibia Ca contents/Tibia P contents) ×100.
Supplementary Table S4. Tibia Weights in OVX Mice Values are expressed mean ± S.D. of eight mice Risedronate sodium was administered at 2.5mg/kg levels a p<0.01 as compared with sham control […]
material OVX = ovariectomy
Groups Tibia absolute weights (g) Tibia relative weights (% of body weight)Wet Dry Ash Wet Dry Ash

For data set [2] the test system is unchanged. The data set is described as follows: Bone strength (failure load, three-point bending test) in OVX mice. It is filed as in vivo. As to conditions: oral once daily 28 days; risedronate 2.5 mg/kg.
The test system of data set [3] is BMMs. The data set is described as follows: Phagocytosis assay, FITC-zymosan uptake. The data set is classed as cell-based, C57BL/6 mice. As to conditions: pretreated 1 hour. The procedure: After the incubations, cells were washed three times with PBS, and the quantities of internalized fluorescent particles were determined by flow cytometry. FITC-zymosan uptake was quantified as mean fluorescence intensity (MFI).
Supplementary Figure S3. (A) Ewha-18278 compounds can not directly scavenge superoxide or other reactive species in vitro. ROS (H2O2) measured with lucigenin. Reaction mixtures contained 1 […]
Luminescence measured over 30 min at 37
°C with luminometor (Gloma X luminometor, Turner BioSystem). […]
the phagocytosis of zymosan. […]
incubated with FITC-zymosan particles, and internalized fluorescence was measured by flow cytometry. The data are presented as the MFI of internalized FITC. Data represent mean ± S.D. […]

Data set [4] relates to OVX-induced osteoporotic ddY mice. Description: Number of OBs in cortical bone lining of OVX mice (H&E). As to conditions: mouse, in vivo. The protocol: Sham OVX Risedronate 20 mg/kg 10 mg/kg 5 mg/kg 2.5 mg/kg20.0mg/kg 10.0mg/kg 5.0mg/kg 2.5mg/kg […]
Supplementary Figure S8. […] CB number was […]
counted in osteoblastic lining in cortical bone with H&E staining. a p<0.005 and b p<0.005 as compared with OVX and Risendronate, respectively, c p<0.005 and d p<0.005 as compared with 20

The subject of data set [5] is BMMs. The data set is described as follows: RANKL-induced OC differentiation, TRAP staining. The data set is classed as cell-based, C57BL/6 mice. The following applies: M-CSF 30 ng/ml, RANKL 100 ng/ml, dose-dependent. The procedure:
RANKL-induced ROS generation was monitored by confocal microscopic analysis of DCF fluorescence. Data represent three repeated experiments and are shown as mean ± SD (n = 3). […] (D) TRAP^+ MNCs containing more than 3 nuclei were counted. Data represent mean ± S.D., *P < 0.005. Scale bar, 500 μm.
Primary BMMs were obtained from 6- to 8-week-old male C57BL/6 mice (The Jackson Laboratory, Bar Harbor, […], USA) as described previously. In brief, bone marrow cells were cultured in α-MEM (HyClone, Logan, UT, USA) containing 10% fetal bovine serum (FBS) (HyClone, Logan UT, USA) with 30 ng/ml macrophage-colony stimulating facor (M-CSF) for 3 days to obtain OC precursor cells of monocyte/macrophage lineage. For OC differentiation, the precursor cells were treated with 100 ng/ml RANKL in the presence of M-CSF with or without for 3–4 days. OCs were fixed with 4% paraformaldehyde and stained for tartrate-resistant acid phosphatase (TRAP) using a leukocyte acid phosphatase cytochemistry kit (Sigma-Aldrich, St. Louis, MO, USA) according to the manufacturer’s instructions. TRAP-positive multinucleated cells (TRAP^+ MNCs) containing three or more nuclei were counted as OC-like cells.

[6] abbreviates: 2.5 mg/kg oral once daily 28 days.
Where [7] appears, read: 5 mg/kg oral once daily 28 days.
Where [8] appears, read: 10 mg/kg oral once daily 28 days.
Setting [9] is: 20 mg/kg oral once daily 28 days.

As to `CCCc1c(-c2ccccc2)nn(-c2ccccn2)c1O` [Ewha-18278, 3-phenyl-1-(pyridin-2-yl)-4-propyl-1H-5-hydroxypyrazole HCl], in the data set with Mature OCs, the “apoptosis of OCs” value is “had no effect on apoptosis”. Besides, the “Tibia absolute weights, Ash” value in data set [1] (setting [6]) stood at 0.027 g; in data set [1] (setting [7]), 0.030 g; in data set [1] (setting [8]), 0.030 g; in data set [1] (setting [9]), 0.032 g. In addition, the “Tibia absolute weights, Dry” value in data set [1] (setting [6]) is 0.051 g; in data set [1] (setting [7]), 0.051 g; in data set [1] (setting [8]), 0.052 g; in data set [1] (setting [9]), 0.052 g. The “Tibia absolute weights, Wet” value in data set [1] (setting [6]) came out at 0.070 g; in data set [1] (setting [7]) it was 0.071 g; in data set [1] (setting [8]), 0.071 g; in data set [1] (setting [9]) it was 0.071 g. Further, in data set [2], the “bone strength (FL) of femur and tibia compared to control OVX” value was “enhanced”. Further, the “phagocytosis of FITC-zymosan (MFI) vs DMSO” value with BMMs [3] was “n.s”. For the same compound, in data set [4], the “number of OBs in tibia and femur compared to OVX control mice” value was “increased”. In addition, in the data set on BMMs [5], the “formation of TRAP-positive OCs with >3 nuclei” value is recorded as “inhibited the formation of TRAP-positive OCs”.
